ChEMBL document CHEMBL5108002, “Design, synthesis, and biological evaluation of novel 7-substituted 10,11-methylenedioxy-camptothecin derivatives against drug-resistant small-cell lung cancer in vitro and in vivo” (Eur J Med Chem, 2022)
Activity calls are given as the source filed them. The calls are words filed in the database; no cut-off is given here.

Key:
[1] = test system: NCI-H69; assay: Induction of apoptosis in human NCI-H69 cells assessed as increase in cleaved-caspase 3 protein expression at 0.1 to 100 nM measured after 24 hrs by Western blot analysis; format: functional, cell-based; details: dose 0.1-100 nM
[2] = test system: H69AR; assay: Induction of apoptosis in human NCI-H69AR cells assessed as increase in cleaved-PARP protein expression at 0.1 to 100 nM measured after 24 hrs by Western blot analysis; format: functional, cell-based; details: dose 0.1-100 nM
[3] = test system: H69AR; assay: Induction of apoptosis in human NCI-H69AR cells assessed as reduction in XIAP mRNA expression at 0.1 to 100 nM incubated for 24 hrs by RT-PCR analysis; format: functional, cell-based; details: dose 0.1-100 nM
[4] = test system: H69AR; assay: Induction of apoptosis in human NCI-H69AR cells assessed as increase in cleaved-caspase 9 protein expression at 0.1 to 100 nM measured after 24 hrs by Western blot analysis; format: functional, cell-based; details: dose 0.1-100 nM
[5] = test system: NCI-H446; assay: Induction of apoptosis in human NCI-H446 cells assessed as inhibition of XIAP protein expression incubated for 24 hrs by Western blot analysis; format: functional, cell-based; details: dose 0.1-100 nM
[6] = test system: Bel-7402; assay: Antiproliferative activity against human Bel-7402 cells assessed as inhibition of cell growth incubated for 72 hrs by SRB assay; format: functional, cell-based; details: Bel-7402, 72 h
[7] = test system: H69AR; assay: Induction of apoptosis in human NCI-H69AR cells assessed as dead cells at 10 nM incubated for 24 hrs by AnnexinV-FITC/PI staining based flow cytometry analysis (reference value: 1.92 %); format: functional
[8] = test system: NCI-H446; assay: Induction of apoptosis in human NCI-H446 cells assessed as increase in cleaved-PARP protein expression at 0.1 to 100 nM measured after 24 to 48 hrs by Western blot analysis; format: functional, cell-based; details: dose 0.1-100 nM, time 24-48 hrs
[9] = test system: NCI-H69; assay: Induction of apoptosis in human NCI-H69 cells assessed as increase in cleaved-PARP protein expression at 0.1 to 100 nM measured after 24 hrs by Western blot analysis; format: functional, cell-based; details: dose 0.1-100 nM
[10] = test system: H69AR; assay: Induction of apoptosis in human NCI-H69AR cells assessed as early apoptotic cells at 10 nM incubated for 24 hrs by AnnexinV-FITC/PI staining based flow cytometry analysis (reference value: 0.35 %); format: functional
[11] = test system: NCI-H446; assay: Induction of apoptosis in human NCI-H446 cells assessed as increase in cleaved-caspase 3 protein expression at 0.1 to 100 nM measured after 24 to 48 hrs by Western blot analysis; format: functional, cell-based; details: dose 0.1-100 nM, time 24-48 hrs
[12] = test system: H69AR; assay: Induction of apoptosis in human NCI-H69AR cells assessed as inhibition of Bcl-2 protein expression at 0.1 to 100 nM incubated for 24 hrs by Western blot analysis; format: functional, cell-based; details: dose 0.1-100 nM
[13] = test system: H69AR; assay: Induction of apoptosis in human NCI-H69AR cells assessed as late apoptotic cells at 1 nM incubated for 24 hrs by AnnexinV-FITC/PI staining based flow cytometry analysis (reference value: 2.99 %); format: functional
[14] = Toxicity in BALB/c nude mouse xenografted with human NCI-H446 cells assessed as reduction in body weight at high dose administered intragastrically once a week for 28 days and measured three times a week; details: in vivo, po, 672 h, route ig, time 28 day
[15] = test system: NCI-H446; assay: Induction of apoptosis in human NCI-H446 cells assessed as early apoptotic cells at 1 nM incubated for 24 hrs by AnnexinV-FITC/PI staining based flow cytometry analysis (reference value: 3.1 %); format: functional
[16] = test system: U-87 MG; assay: Antiproliferative activity against human U87 cells assessed as inhibition of cell growth incubated for 72 hrs by SRB assay; format: functional, cell-based, U-87MG ATCC
[17] = test system: NCI-H446; assay: Induction of apoptosis in human NCI-H446 cells assessed as early apoptotic cells at 0.1 nM incubated for 24 hrs by AnnexinV-FITC/PI staining based flow cytometry analysis (reference value: 3.1 %); format: functional
[18] = test system: NCI-H446; assay: Induction of apoptosis in human NCI-H446 cells assessed as late apoptotic cells at 1 nM incubated for 24 hrs by AnnexinV-FITC/PI staining based flow cytometry analysis (reference value: 0.37 %); format: functional
[19] = test system: H69AR; assay: Induction of apoptosis in human NCI-H69AR cells assessed as late apoptotic cells at 10 nM incubated for 24 hrs by AnnexinV-FITC/PI staining based flow cytometry analysis (reference value: 2.99 %); format: functional
[20] = test system: NCI-H69; assay: Induction of apoptosis in human NCI-H69 cells assessed as inhibition of survivin protein expression at 0.1 to 100 nM incubated for 24 hrs by Western blot analysis; format: functional, cell-based; details: dose 0.1-100 nM
[21] = Toxicity in BALB/c nude mouse xenografted with Irinotecan-resistant human NCI-H446 cells assessed as reduction in body weight at 3 mg/kg, IG administered once a week and measured 3 times a week for 35 days; format: organism-based; details: in vivo, po, 840 h, time 35 day
[22] = test system: Mus musculus; assay: Downregulation of survivin protein expression in tumor of BALB/c mouse xenografted with human NCI-H446 cells at 0.75 mg/kg, IG administered intragastrically once a week for 28 days by western blot analysis; format: functional, organism-based; details: time 28.0 day
[23] = test system: NCI-H446; assay: Antitumor activity against etoposide/cisplatin combination-resistant human NCI-H446 cells xenografted in BALB/c nude mouse assessed as average tumor mass at 3 mg/kg, IG administered once a week and measured 3 times a week; format: functional
[24] = test system: NCI-H446; assay: Antitumor activity against human NCI-H446 cells xenografted in BALB/c nude mouse assessed as tumor growth inhibition at 1.5 mg/kg, IG administered once a week for 28 days by electronic caliper method relative to control; format: functional; details: NCI-H446, po, 672 h, time 28 day, read-out: TGI
[25] = test system: NCI-H446; assay: Induction of apoptosis in human NCI-H446 cells assessed as dead cells at 0.1 nM incubated for 24 hrs by AnnexinV-FITC/PI staining based flow cytometry analysis (reference value: 0.22 %); format: functional
[26] = test system: HepG2; assay: Antiproliferative activity against human HepG2 cells assessed as inhibition of cell growth incubated for 72 hrs by SRB assay; format: functional, cell-based; details: HepG2, 72 h
[27] = test system: NCI-H446; assay: Induction of apoptosis in human NCI-H446 cells assessed as reduction in survivin mRNA level at 0.1 to 100 nM incubated for 24 hrs by RT-PCR analysis; format: functional, cell-based; details: dose 0.1-100 nM
[28] = test system: MCF7; assay: Antiproliferative activity against human MCF7 cells assessed as inhibition of cell growth incubated for 72 hrs by SRB assay; format: functional, cell-based; details: MCF7, 72 h
[29] = test system: NCI-H446; assay: Induction of apoptosis in human NCI-H446 cells assessed as late apoptotic cells at 10 nM incubated for 24 hrs by AnnexinV-FITC/PI staining based flow cytometry analysis (reference value: 0.37 %); format: functional
[30] = test system: NCI-H446; assay: Antiproliferative activity against Irinotecan-resistant human NCI-H446 cells assessed as inhibition of cell growth incubated for 72 hrs by SRB assay; format: functional, cell-based; details: NCI-H446, 72 h
[31] = test system: NCI-H69; assay: Induction of apoptosis in human NCI-H69 cells assessed as inhibition of XIAP protein expression at 0.1 to 100 nM incubated for 24 hrs by Western blot analysis; format: functional, cell-based; details: dose 0.1-100 nM
[32] = Resistance index, ratio of IC50 for antiproliferative activity against etoposide/cisplatin combination-resistant human NCI-H446 cells to IC50 for antiproliferative activity against human NCI-H446 cells; format: functional
[33] = test system: NCI-H446; assay: Antitumor activity against human NCI-H446 cells xenografted in BALB/c nude mouse assessed as tumor growth inhibition at 0.75 mg/kg, IG administered once a week for 28 days by electronic caliper method relative to control; format: functional; details: NCI-H446, po, 672 h, time 28 day, read-out: TGI

CC[C@@]1(O)C(=O)OCc2c1cc1n(c2=O)Cc2c-1nc1cc3c(cc1c2-c1ccoc1)OCO3
Activity [1]: Active
Activity [2]: Active
Activity [3]: Active
Activity [4]: Active
inhibition [5]: Active
IC50 [6]: 3.8 nM
Activity [7]: 1.82%
Activity [8]: Active
Activity [9]: Active
Activity [10]: 0.57%
Activity [11]: Active
inhibition [12]: Active
Activity [13]: 7.02%
Activity [14]: Toxic
Activity [15]: 13.08%
IC50 [16]: 19.1 nM
Activity [17]: 7%
Activity [18]: 9.6%
Activity [19]: 12.48%
inhibition [20]: Active
Activity [21]: Non-Toxic
Activity [22]: Active
Activity [23]: 0.23 g
inhibition in vivo at 1.5 mg/kg [24]: 73.7%
Activity [25]: 0.91%
IC50 [26]: 1.42 nM
Activity [27]: Active
IC50 [28]: 9.49 nM
Activity [29]: 6.25%
IC50 [30]: 0.5 nM
inhibition [31]: Active
Ratio IC50 [32]: 0.63
inhibition in vivo at 0.75 mg/kg [33]: 40.4%
